Reference: US10517889B2, “Modulators of SMAD7 expression” (Ionis Pharmaceuticals, Inc., priority 2017, dated 2019)
Strand notation (5' to 3'): a small letter for the sugar, then the base; units joined by * are phosphorothioate-linked, units joined directly phosphodiester-linked; [ ] holds rarer units or linkages, { } end groups; capitals alone tell only the bases. k = constrained ethyl (cEt); [5mC] = 5-methylcytosine; d = 2'-deoxy (DNA)

Test system: human SMAD7 mRNA
Test: Antisense inhibition of human SMAD7 mRNA expression in Hep3B cells by 3-10-3 cEt gapmers, 10,000 nM, electroporation (Example 2)
Type: cell-based
Conditions: Hep3B cells, electroporation with 10,000 nM antisense oligonucleotide, approximately 24 hours, SMAD7 mRNA by RT-PCR (RTS5062), relative to untreated control cells
Outline: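 qRT-PCR (RTS5062) of SMAD7 mRNA, normalised to RIBOGREEN total RNA, gave percent inhibition relative to untreated controls. Hep3B cells at 20,000 per well received 10,000 nM oligonucleotide by electroporation, with ~24 h treatment.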

Compared with “799348 (kA*kT*kA*dA*dA*dA*dG*dG*dA*dA*dA*dG*dG*kA*kG*kT; antisense) [compound 799348]”, “799349 (kA*kG*k[5mC]*dG*d[5mC]*dA*d[5mC]*dT*d[5mC]*dG*dG*dG*dA*kG*kA*kT; antisense) [compound 799349]” is lower in “% Inhibition” value: 21% for the first, 0% for the second.

“799350 (kA*kT*kT*d[5mC]*d[5mC]*dT*dA*dG*d[5mC]*dG*d[5mC]*dA*d[5mC]*kT*k[5mC]*kG; antisense) [compound 799350]” and “799351 (kT*kT*kT*dA*dG*d[5mC]*dT*dG*dT*d[5mC]*dA*dG*dA*kT*kA*kA; antisense) [compound 799351]” are the same in “% Inhibition” value: 31% for the first, 31% for the second.

Going from “799352 (kG*k[5mC]*kG*dG*dT*dG*dA*dT*dT*dG*d[5mC]*d[5mC]*dT*kT*kG*kA; antisense) [compound 799352]” to “799353 (kT*k[5mC]*kT*dT*dT*dT*dA*dG*d[5mC]*d[5mC]*d[5mC]*dA*dA*k[5mC]*kT*kG; antisense) [compound 799353]”, the “% Inhibition” value rises from 24% to 45%.

Compared with “799354 (kA*kT*k[5mC]*dT*dA*d[5mC]*dT*d[5mC]*dA*d[5mC]*d[5mC]*dA*dG*kT*kT*kG; antisense) [compound 799354]”, “799355 (kA*kG*kG*dA*dA*dA*d[5mC]*d[5mC]*dT*dA*dG*dA*dA*k[5mC]*k[5mC]*kA; antisense) [compound 799355]” is higher in “% Inhibition” value: 0% for the first, 23% for the second.

Compared with “799356 (kG*kA*kA*dA*dA*dA*dT*dT*d[5mC]*dA*d[5mC]*d[5mC]*dA*kA*kA*k[5mC]; antisense) [compound 799356]”, “799357 (k[5mC]*kA*k[5mC]*dA*dA*d[5mC]*dA*dG*dA*dA*dA*dA*dA*kT*kT*k[5mC]; antisense) [compound 799357]” is higher in “% Inhibition” value: 23% for the first, 41% for the second.

Going from “799367 (antisense kA*kG*kT*d[5mC]*dT*d[5mC]*d[5mC]*dG*dA*dG*dT*dT*dA*kT*k[5mC]*k[5mC]) [compound 799367]” to “799368 (antisense k[5mC]*kT*kA*dA*dG*dT*d[5mC]*dT*d[5mC]*d[5mC]*dG*dA*dG*kT*kT*kA) [compound 799368]”, the “% Inhibition” value rises from 41% to 68%.

Going from “799370 (antisense kG*kG*k[5mC]*dA*d[5mC]*dT*d[5mC]*dA*d[5mC]*dT*dA*dA*dG*kT*k[5mC]*kT) [compound 799370]” to “799371 (antisense k[5mC]*k[5mC]*k[5mC]*dT*dT*dT*d[5mC]*d[5mC]*dA*dT*dT*dA*dT*kT*k[5mC]*k[5mC]) [compound 799371]”, the “% Inhibition” value rises from 13% to 28%.

Compared with “799372 (antisense k[5mC]*k[5mC]*k[5mC]*dA*dT*d[5mC]*dT*dA*dT*d[5mC]*dG*dA*dA*kT*k[5mC]*kA) [compound 799372]”, “799373 (antisense kA*kA*k[5mC]*d[5mC]*dG*dT*d[5mC]*dT*dT*d[5mC]*d[5mC]*d[5mC]*dA*kT*k[5mC]*kT) [compound 799373]” is lower in “% Inhibition” value: 67% for the first, 56% for the second.

Going from “799374 (antisense kT*kT*kG*d[5mC]*dA*d[5mC]*d[5mC]*dT*dT*dT*dT*dT*dA*kA*kA*k[5mC]) [compound 799374]” to “799375 (antisense kG*k[5mC]*k[5mC]*dT*dA*dT*dA*d[5mC]*dT*dT*d[5mC]*dT*dG*kA*kA*kA) [compound 799375]”, the “% Inhibition” value falls from 30% to 10%.

Compared with “799376 (antisense kG*k[5mC]*kA*dG*dG*dA*dG*dG*dA*dA*d[5mC]*d[5mC]*dT*kA*k[5mC]*k[5mC]) [compound 799376]”, “799387 (antisense k[5mC]*k[5mC]*kA*dG*dG*dA*dG*d[5mC]*dT*dA*dA*dA*dT*kG*kG*kT) [compound 799387]” is lower in “% Inhibition” value: 45% for the first, 22% for the second.

First: 799388 (antisense kT*kT*kG*d[5mC]*dA*dG*dA*dA*dT*dT*d[5mC]*d[5mC]*dA*kG*kG*kA) [compound 799388]
Second: 799389 (antisense kA*kA*kA*dA*d[5mC]*dG*d[5mC]*dA*dG*dG*dA*dG*dG*k[5mC]*kG*kG) [compound 799389]
The “% Inhibition” value of the first is higher: 41% for the first, 27% for the second.

“799390 (antisense k[5mC]*kA*kA*dA*dA*d[5mC]*dT*dT*dT*dT*dA*dA*dT*kT*kA*kG) [compound 799390]” and “799391 (antisense k[5mC]*kG*k[5mC]*d[5mC]*d[5mC]*d[5mC]*dA*dG*d[5mC]*dA*dA*dA*dA*k[5mC]*kT*kT) [compound 799391]” are the same in “% Inhibition” value: 0% for the first, 0% for the second.

Going from “799392 (antisense kT*kA*kT*dT*dA*dG*dA*d[5mC]*d[5mC]*dG*dG*d[5mC]*dA*k[5mC]*k[5mC]*kA) [compound 799392]” to “799393 (antisense kT*kG*k[5mC]*dT*dT*dT*dG*d[5mC]*dG*dG*dG*d[5mC]*d[5mC]*kA*k[5mC]*kT) [compound 799393]”, the “% Inhibition” value rises from 46% to 56%.

Compared with “799394 (antisense kA*k[5mC]*kA*dG*dA*dG*dA*dG*d[5mC]*dT*dG*dG*dG*kT*kA*kT) [compound 799394]”, “799395 (antisense kT*kT*kA*d[5mC]*dA*dA*dA*dT*dA*d[5mC]*dA*dG*dA*kG*kA*kG) [compound 799395]” is higher in “% Inhibition” value: 33% for the first, 62% for the second.

Same assay, conditions: Hep3B cells, electroporation with 10,000 nM antisense oligonucleotide, approximately 24 hours, primer probe set RTS5062, relative to untreated control cells

Going from “799347 (kA*kA*kG*dG*dA*dG*dT*dT*dT*d[5mC]*dA*dG*dG*kG*kT*k[5mC]; antisense) [compound 799347]” to “799358 (kA*kG*k[5mC]*dA*d[5mC]*dA*dA*dA*dT*dA*d[5mC]*dA*dT*kG*kA*kA; antisense) [compound 799358]”, the “% inhibition of SMAD7 mRNA expression” value falls from 59% to 52%.

Going from “799359 (kT*kG*kT*dT*dA*dA*dA*dG*d[5mC]*dT*dG*dA*dG*k[5mC]*k[5mC]*k[5mC]; antisense) [compound 799359]” to “799360 (k[5mC]*k[5mC]*kA*dA*dG*dA*d[5mC]*dA*d[5mC]*dT*dT*d[5mC]*dT*k[5mC]*kT*k[5mC]; antisense) [compound 799360]”, the “% inhibition of SMAD7 mRNA expression” value rises from 22% to 42%.

First: 799361 (kG*kT*k[5mC]*d[5mC]*dT*dA*dT*dT*dT*dG*dG*dT*dT*k[5mC]*k[5mC]*k[5mC]; antisense) [compound 799361]
Second: 799362 (k[5mC]*kA*kT*d[5mC]*dA*dA*d[5mC]*d[5mC]*dA*dG*dT*d[5mC]*d[5mC]*kT*kA*kT; antisense) [compound 799362]
The “% inhibition of SMAD7 mRNA expression” value of the first is higher: 77% for the first, 39% for the second.

Going from “799363 (kG*kA*kG*dT*dT*dA*dT*d[5mC]*d[5mC]*d[5mC]*d[5mC]*dA*dT*k[5mC]*kA*kA; antisense) [compound 799363]” to “799377 (antisense kT*kT*kG*d[5mC]*dA*dG*dG*dT*dG*dA*d[5mC]*dT*dG*kG*kA*kG) [compound 799377]”, the “% inhibition of SMAD7 mRNA expression” value falls from 49% to 15%.

First: 799378 (antisense kG*kA*kA*dT*dA*d[5mC]*dT*dG*dA*dG*dA*dA*dA*kA*k[5mC]*k[5mC]) [compound 799378]
Second: 799379 (antisense kT*kT*kT*dG*dA*dT*dA*dG*dT*d[5mC]*d[5mC]*d[5mC]*dT*kA*kT*kG) [compound 799379]
The “% inhibition of SMAD7 mRNA expression” value of the first is higher: 46% for the first, 0% for the second.

Going from “799380 (antisense k[5mC]*kT*k[5mC]*d[5mC]*dT*dA*d[5mC]*dT*dG*dT*dA*dA*dG*kA*kG*kG) [compound 799380]” to “799381 (antisense kA*kA*k[5mC]*dA*dG*dA*dT*d[5mC]*dT*dA*dT*d[5mC]*dT*k[5mC]*k[5mC]*kT) [compound 799381]”, the “% inhibition of SMAD7 mRNA expression” value rises from 1% to 54%.

“799383 (antisense k[5mC]*kA*k[5mC]*dA*dA*dA*dA*dA*d[5mC]*d[5mC]*dA*dA*dG*kG*kT*kT) [compound 799383]” and “799384 (antisense kG*kG*k[5mC]*dA*d[5mC]*dA*dA*dA*dA*dA*d[5mC]*d[5mC]*dA*kA*kG*kG) [compound 799384]” are the same in “% inhibition of SMAD7 mRNA expression” value: 40% for the first, 40% for the second.

Compared with “799385 (antisense kT*kG*k[5mC]*d[5mC]*d[5mC]*dA*dA*d[5mC]*d[5mC]*d[5mC]*dT*dT*d[5mC]*kA*k[5mC]*kT) [compound 799385]”, “799386 (antisense kA*kG*kG*dA*dG*d[5mC]*dT*dA*dA*dA*dT*dG*dG*kT*kG*k[5mC]) [compound 799386]” is lower in “% inhibition of SMAD7 mRNA expression” value: 31% for the first, 12% for the second.

Compared with “799397 (antisense kA*kA*kA*dA*d[5mC]*dA*dG*dA*dG*d[5mC]*dT*dT*dG*kG*kT*kA) [compound 799397]”, “799398 (antisense k[5mC]*kT*kT*dG*dG*dA*dA*dA*dA*dT*dG*dA*dA*k[5mC]*kT*kT) [compound 799398]” is higher in “% inhibition of SMAD7 mRNA expression” value: 27% for the first, 48% for the second.

“799399 (antisense kT*k[5mC]*k[5mC]*dA*dA*dA*dT*dT*dT*dG*dA*dA*dG*kA*kA*kT) [compound 799399]” and “799400 (antisense kG*kG*kA*dA*dA*dA*d[5mC]*d[5mC]*dT*d[5mC]*d[5mC]*dA*dA*kA*kT*kT) [compound 799400]” are the same in “% inhibition of SMAD7 mRNA expression” value: 0% for the first, 0% for the second.

With “799401 (antisense kT*k[5mC]*kT*dT*dT*dT*dA*dA*dG*dG*dA*dA*dA*kA*k[5mC]*k[5mC]) [compound 799401]” the “% inhibition of SMAD7 mRNA expression” value was 53%.
